As usually defined, the MIC is the lowest concentration that inhibits growth of the organism. Low values mean inhibition by little substance, high ones a need for much substance.

The values below come from patent US10660874B2, “Ecteinamycin, compositions and uses thereof” (Wisconsin Alumni Research Foundation, priority 2014, dated 2020).

The test system of test [1] is MRSA (ATCC #33591). The test can be described thus: MIC, dilution antimicrobial susceptibility test. The test is classed as cell-based, Methicillin-resistant Staphylococcus aureus. The note with it: Staphylococcus aureus, 18 h. Here is the method: (§1) Ecteinamycin was tested for antibacterial activity against C. difficile (ATCC BAA-1870), MRSA (ATCC #33591), MSSA (ATCC #29213), E. coli (ATCC #25922), P. aeruginosa (ATCC #27853), and VRE (ATCC), and MICs were determined using a dilution antimicrobial susceptibility test for aerobic (MRSA, MSSA, E. coli, P. aeruginosa, and VRE) and anaerobic (C. difficile) bacteria. Ecteinamycin was dissolved in DMSO, serially diluted to 10 concentrations (0.0313-32 μg/mL), and tested in a 96-well plate. […] Ecteinamycin and vancomycin were tested in triplicate. Six untreated media controls were included on each plate. For MRSA, MSSA, E. coli, and P. aeruginosa, the plates were incubated at 33° C. for 18 h. For C. difficile, the plate was incubated at 36° C. for 48 h anaerobically and then read visually using a mirror apparatus. All manipulations to the plate were done inside the anaerobe chamber. The MIC was determined as the lowest concentration that inhibited visible growth.

The test system of test [2] is VRE (ATCC). Nature of the test: MIC, dilution antimicrobial susceptibility test. The test is classed as cell-based, Vancomycin-resistant Enterococcus. Conditions: Enterococcus. Here is the method: as §1

Converted amounts (≈) assume the structure as drawn.

With `C=C1OC(=O)C(C(=O)CC2OC(C(C)C(O)C(CC)C(=O)C(C)(O)C3CCC(CC)(C4CCC(O)(C(C)OC)C(C)O4)O3)C(C)CC2C)=C1O` (centres unmarked) [ecteinamycin], the MIC in test [1] worked out at 0.125 µg/mL (≈ 0.176 µM); in test [2], 0.25 µg/mL (≈ 0.353 µM).
